Laboratory results reported in US10766894B2, “Aza-indazole compounds for use in tendon and/or ligament injuries” (NOVARTIS AG, priority 2016, dated 2020).
Where two headings read alike, the source gives them in different places.

Columns and labels:
[1] = tested on: mouse immortalized TT-D6 Scx-luciferase (ScxL) cell line; transcriptional activation of Scleraxis (Scx) gene; assay: SCX-LUC in vitro assay (scleraxis promoter luciferase reporter); type: cell-based; conditions: Mus musculus, 96 h
[2] = tested on: Scleraxis (Scx) gene expression in rat tail tendon fascicles; assay: Ex vivo assay, tendon fascicles, Scleraxis mRNA (qPCR); type: cell-based, Sprague Dawley rat; conditions: 96 h
[3] = tested on: Tenomodulin (Tnmd) gene expression in rat tail tendon fascicles; assay: Ex vivo assay, tendon fascicles, Tenomodulin mRNA (qPCR); type: cell-based, Sprague Dawley rat; conditions: 96 h
[4] = tested on: collagen type 1 (Col1a2) gene expression in rat tail tendon fascicles; assay: Ex vivo assay, tendon fascicles, collagen type 1 mRNA (qPCR); type: cell-based, Sprague Dawley rat; conditions: 96 h
[5] = Examples table, TT-D6 Scx-luciferase cells, 1 ng/ml TGFβ1, four days, read-out: Scx-Luc (EC50 μM)
[6] = Examples table, rat tail tendon fascicles, four days, delta-delta Ct, read-out: Ex vivo Scx (EC50 μM)
[7] = Examples table, rat tail tendon fascicles, four days, delta-delta Ct, read-out: Ex vivo Tnmd (EC50 μM)
[8] = Examples table, rat tail tendon fascicles, four days, delta-delta Ct, read-out: Ex vivo Col1a2 (EC50 μM)
[9] = Table 1, TT-D6 Scx-luciferase cells, 1 ng/ml TGFβ1, four days, read-out: Scx-Luc (EC50 uM)
[10] = Rattus norvegicus, read-out: Ex vivo SCX (EC50 uM)
[11] = Rattus norvegicus, read-out: Ex vivo Tnmd (EC50 uM)
[12] = Rattus norvegicus, read-out: Ex vivo Col1a2 (EC50 uM)

Structure (SMILES)	EC50 [1, 5] [µM]	EC50 [2, 6] [µM]	EC50 [3, 7] [µM]	EC50 [4, 8] [µM]	also measured
CC(O)(C1CN(S(=O)(=O)c2ccc(-c3ccc4[nH]nc(N)c4n3)c(Cl)c2)CCN1)C(F)(F)F (centres unmarked) [Example 89, 2-(4-((4-(3-amino-1H-pyrazolo[4,3-b]pyridin-5-yl)-3-chlorophenyl)sulfonyl)piperazin-2-yl)-1,1,1-trifluoropropan-2-ol]	2.19	4.44	5.01	7.27	–
Nc1n[nH]c2ccc(-c3ccc(S(=O)(=O)N[C@H]4C[C@](O)(C(F)(F)F)C4)cc3Cl)nc12 [Example 1]	0.183	2.11	0.804	1.59	–
Cc1cc(S(=O)(=O)Nc2ccccc2)ccc1-c1ccc2[nH]nc(N)c2n1 [Example 16, 4-(3-amino-1H-pyrazolo[4,3-b]pyridin-5-yl)-3-methyl-N-phenylbenzenesulfonamide]	0.61	3.86	2.81	4.65	–
Nc1n[nH]c2ccc(-c3ccc(NS(=O)(=O)c4ccc5c(c4)OCO5)cc3Cl)nc12 [Example 11, N-(4-(3-amino-1H-pyrazolo[4,3-b]pyridin-5-yl)-3-chlorophenyl)benzo[d][1,3]dioxole-5-sulfonamide]	0.801	3.05	0.841	2.46	–
N#C[C@H]1CC(=O)CC[C@@H]1n1cc(C(N)=O)c(Nc2ccc(C(F)(F)F)cc2)n1 [reference compound]	–	–	–	–	EC50 [1, 9]: 1.24 µM; EC50 ([2]; Table 1, rat tail tendon fascicles, four days, delta-delta Ct, read-out: Ex vivo SCX (EC50 uM)): 0.85 µM; EC50 ([3]; Table 1, rat tail tendon fascicles, four days, delta-delta Ct, read-out: Ex vivo Tnmd (EC50 uM)): 4.83 µM; EC50 ([4]; Table 1, rat tail tendon fascicles, four days, delta-delta Ct, read-out: Ex vivo Col1a2 (EC50 uM)): 0.94 µM
Nc1n[nH]c2ccc(-c3ccc(S(=O)(=O)NC4CCS(=O)(=O)CC4)cc3Cl)nc12 [Example 50, 4-(3-amino-1H-pyrazolo[4,3-b]pyridin-5-yl)-3-chloro-N-(1,1-dioxidotetrahydro-2H-thiopyran-4-yl)benzenesulfonamide]	> 10	2.33	6.3	6.37	–
Nc1n[nH]c2ccc(-c3ccc(S(=O)(=O)N4CC(F)(F)C[C@H]4CO)cc3Cl)nc12 [Example 18, (S)-(1-((4-(3-amino-1H-pyrazolo[4,3-b]pyridin-5-yl)-3-chlorophenyl)sulfonyl)-4,4-difluoropyrrolidin-2-yl)methanol]	0.764	1.77	0.75	1.83	–
CC[C@@](C)(Nc1ccnc(-c2c[nH]c3ncccc23)n1)C(=O)NCC(F)(F)F [reference compound]	–	–	–	–	EC50 ([1]; read-out: Scx-Luc (EC50 uM)): 0.03 µM; EC50 [2, 10]: 1.65 µM; EC50 [3, 11]: 1.77 µM; EC50 [4, 12]: 0.88 µM
Cc1cc(S(=O)(=O)N2CC3CCCC3C2)ccc1-c1ccc2[nH]nc(N)c2n1 (centres unmarked) [Example 21, 5-(4-((hexahydrocyclopenta[c]pyrrol-2(1H)-yl)sulfonyl)-2-methylphenyl)-1H-pyrazolo[4,3-b]pyridin-3-amine]	0.598	4.93	3.51	3.71	–
Nc1n[nH]c2ccc(-c3ccc(S(=O)(=O)NCCO)cc3Cl)nc12 [Example 72, 4-(3-amino-1H-pyrazolo[4,3-b]pyridin-5-yl)-3-chloro-N-(2-hydroxyethyl)benzenesulfonamide]	4.09	3.94	3.42	3.28	–
Cc1cc(S(=O)(=O)NC2CC(F)(F)C2)ccc1-c1ccc2[nH]nc(N)c2n1 [Example 8, 4-(3-amino-1H-pyrazolo[4,3-b]pyridin-5-yl)-N-(3,3-difluorocyclobutyl)-3-methylbenzenesulfonamide]	0.346	0.11	0.261	1.29	–
Nc1n[nH]c2ccc(-c3ccc(S(=O)(=O)NC4CCS(=O)(=O)C4)cc3Cl)nc12 (centres unmarked) [Example 31, 4-(3-amino-1H-pyrazolo[4,3-b]pyridin-5-yl)-3-chloro-N-(1,1-dioxidotetrahydrothiophen-3-yl)benzenesulfonamide]	0.411	2.31	2.76	2.63	–
Cc1cc(Nc2nc(N[C@@H](C)c3ncc(F)cn3)ncc2Cl)n[nH]1 [reference compound]	–	–	–	–	EC50 [1, 9]: 0.008 µM; EC50 [2, 10]: 3.37 µM; EC50 [3, 11]: 3.3 µM; EC50 [4, 12]: 2.61 µM
Nc1n[nH]c2ccc(-c3ccc(S(=O)(=O)NC4CCCCC4O)cc3Cl)nc12 (centres unmarked) [Example 12, 4-(3-amino-1H-pyrazolo[4,3-b]pyridin-5-yl)-3-chloro-N-(2-hydroxycyclohexyl)benzenesulfonamide]	0.765	5.79	5.39	4.62	–
Nc1n[nH]c2ccc(-c3ccc(S(=O)(=O)N[C@@H]4CCC[C@@H]4O)cc3Cl)nc12 [Example 7, 4-(3-amino-1H-pyrazolo[4,3-b]pyridin-5-yl)-3-chloro-N-((1R,2S)-2-hydroxycyclopentyl)benzenesulfonamide]	0.305	1.6	1.68	2.06	–
Cc1cc(S(=O)(=O)N(C)[C@H]2C[C@](O)(C(F)(F)F)C2)ccc1-c1ccc2[nH]nc(N)c2n1 [Example 9, 4-(3-amino-1H-pyrazolo[4,3-b]pyridin-5-yl)-N-((1s,3s)-3-hydroxy-3-(trifluoromethyl)cyclobutyl)-N,3-dimethylbenzenesulfonamide]	0.46	2.27	2.14	0.577	–
Nc1n[nH]c2ccc(-c3ccc(S(=O)(=O)NC4CS(=O)(=O)C4)cc3Cl)nc12 [Example 92, 4-(3-amino-1H-pyrazolo[4,3-b]pyridin-5-yl)-3-chloro-N-(1,1-dioxidothietan-3-yl)benzenesulfonamide]	0.968	4.89	6.28	1.35	–
CC(=O)N1CCOc2ccc(S(=O)(=O)Nc3ccc(-c4ccc5[nH]nc(N)c5n4)c(Cl)c3)cc21 [Example 86, 4-acetyl-N-(4-(3-amino-1H-pyrazolo[4,3-b]pyridin-5-yl)-3-chlorophenyl)-3,4-dihydro-2H-benzo[b][1,4]oxazine-6-sulfonamide]	5.39	> 10	4.86	> 10	–
Nc1n[nH]c2ccc(-c3ccc(S(=O)(=O)N4CC5CC5C4)cc3Cl)nc12 (centres unmarked) [Example 63, 5-(4-(3-azabicyclo[3.1.0]hexan-3-ylsulfonyl)-2-chlorophenyl)-1H-pyrazolo[4,3-b]pyridin-3-amine]	1.24	2.12	4.6	3.34	–
Cc1cc(S(=O)(=O)N2CC(O)(C(F)(F)F)C2)ccc1-c1ccc2[nH]nc(N)c2n1 [Example 66, 1-((4-(3-amino-1H-pyrazolo[4,3-b]pyridin-5-yl)-3-methylphenyl)sulfonyl)-3-(trifluoromethyl)azetidin-3-ol]	0.794	0.89	0.719	0.921	–
Nc1n[nH]c2ccc(-c3ccc(NS(=O)(=O)Cc4ccccc4)cc3Cl)nc12 [Example 59, N-(4-(3-amino-1H-pyrazolo[4,3-b]pyridin-5-yl)-3-chlorophenyl)-1-phenylmethanesulfonamide]	4.32	> 10	4.61	5.71	–
Nc1n[nH]c2ccc(-c3ccc(NS(=O)(=O)c4ccc(Cl)cc4)cc3Cl)nc12 [Example 3, N-(4-(3-amino-1H-pyrazolo[4,3-b]pyridin-5-yl)-3-chlorophenyl)-4-chlorobenzenesulfonamide]	0.801	> 10	1.15	3.08	–
C1=C/COCc2cc(ccc2OCCN2CCCC2)Nc2nccc(n2)-c2cccc(c2)COC/1 [reference compound]	–	–	–	–	EC50 [1, 9]: 1.06 µM
CS(=O)(=O)C1CN(S(=O)(=O)c2ccc(-c3ccc4[nH]nc(N)c4n3)c(Cl)c2)C1 [Example 93, 5-(2-chloro-4-((3-(methylsulfonyl)azetidin-1-yl)sulfonyl)phenyl)-1H-pyrazolo[4,3-b]pyridin-3-amine]	5.74	2.95	3.52	1.76	–
O=C(Nc1nc2cccc(-c3ccc(CN4CCS(=O)(=O)CC4)cc3)n2n1)C1CC1 [reference compound]	–	–	–	–	EC50 ([1]; read-out: Scx-Luc (EC50 uM)): 4.32 µM; EC50 [2, 10]: 5.34 µM; EC50 [3, 11]: 6.93 µM; EC50 [4, 12]: 5.01 µM
Nc1n[nH]c2ccc(-c3ccc(S(=O)(=O)Nc4ccccc4)cc3Cl)nc12 [Example 38, 4-(3-amino-1H-pyrazolo[4,3-b]pyridin-5-yl)-3-chloro-N-phenylbenzenesulfonamide]	0.61	0.188	1.89	0.396	–
N#CC[C@H](C1CCCC1)n1cc(-c2ncnc3[nH]ccc23)cn1 [reference compound]	–	–	–	–	EC50 ([1]; read-out: Scx-Luc (EC50 uM)): 0.12 µM; EC50 [2, 10]: 3.13 µM; EC50 [3, 11]: 0.74 µM; EC50 [4, 12]: 2.64 µM
Nc1n[nH]c2ccc(-c3ccc(NS(=O)(=O)c4ccc5ccccc5c4)cc3Cl)nc12 [Example 82, N-(4-(3-amino-1H-pyrazolo[4,3-b]pyridin-5-yl)-3-chlorophenyl)naphthalene-2-sulfonamide]	2.61	> 10	4.87	7.27	–
C[C@@H](O)c1nc2cnc3[nH]ccc3c2n1[C@H]1CC[C@H](C#N)CC1 [reference compound]	–	–	–	–	EC50 [1, 9]: 2.69 µM
